Measurements: PMC6829886, “Inhibition of Non-Small Cell Lung Cancer Cells by Oxy210, an Oxysterol-Derivative that Antagonizes TGFβ and Hedgehog Signaling” (Cells, 2019)

Legend:
[1] = target: T1, Human TGFBR1 (Homo sapiens, UniProt P36897); assay: TGFβ receptor I kinase inhibition assay (Eurofins); type: biochemical; details: vs. positive controls Cdk1/2 Inhibitor III and PKR Inhibitor
T1 construct: Human TGFBR1 (amino acid 200 to end); purchased Eurofins
T1 sequence (P36897 200-503 limits assumed): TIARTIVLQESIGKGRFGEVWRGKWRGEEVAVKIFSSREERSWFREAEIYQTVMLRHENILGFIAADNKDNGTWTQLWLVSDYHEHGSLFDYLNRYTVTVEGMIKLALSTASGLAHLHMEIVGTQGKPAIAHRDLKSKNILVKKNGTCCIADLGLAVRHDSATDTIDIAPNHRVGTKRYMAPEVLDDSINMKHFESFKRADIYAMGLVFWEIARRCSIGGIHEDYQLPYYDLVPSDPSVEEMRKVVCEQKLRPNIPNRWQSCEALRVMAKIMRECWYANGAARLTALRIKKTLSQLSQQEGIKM
Description: Effect of Oxy210 on inhibition of TGFβ receptors I and II kinase activity was assessed by Eurofins (Celle-L’Evescault, France). TGFBR1 (h): Human TGFBR1 (amino acid 200 to end) was incubated with 8 mM MOPS pH 7.0, 0.2 mM EDTA, 1 mM MnCl2, 2 mg/mL casein, 10 mM Magnesium acetate and […] (specific activity and concentration as required). The reaction was initiated by the addition of the Mg/ATP mix. After incubation for 40 min at room temperature, the reaction was stopped by the addition of phosphoric acid to a concentration of 0.5%. 10 μL of the reaction was then spotted onto a P30 filtermat and washed four times for 4 min in 0.425% phosphoric acid and once in methanol prior to drying and scintillation counting. TGFBR2 (h): Human TGFBR2 (amino acid 188-end) was incubated with 20 mM Tris/HCl pH 8.5, 0.2 mM EDTA, 0.33 mg/mL MBP, 10 mM Magnesium acetate and [9-33P-ATP] (specific activity and concentration as required). The reaction was initiated by the addition of the Mg/ATP mix. After incubation for 120 min at room temperature, the reaction was stopped by the addition of phosphoric acid to a concentration of 0.5%. […]
Figure 11 Inhibition of TGFβ-induced Smad2/3 phosphorylation and transcriptional activity. […] Luciferase activity was measured and normalized to the Renilla luciferase activity. […]

[2] = pKa; type: physicochemical; details: printed in Figure 1, method not stated
Description: Figure 1 The molecular structures of Cholesterol, Oxy8, Oxy133, Oxy16, Oxy186 and Oxy210. TEXT PRINTED IN THE PICTURE: Oxy210: pKa ~ 5

[3] = system: Gli responsive luciferase reporter (endogenous Gli); assay: Gli responsive luciferase reporter in Sufu-/- cells; type: cell-based, mouse; details: 72 hrs
Description: NIH3T3-E1 cells cultured in 24 well-plates at 90% confluence were transiently transfected with 0.1 μg of Smad response-element reporter (SBE-Luciferase) plasmid (Qiagen), or with 0.1 μg of Gli response-element reporter (pGL3b-8xGli-Luciferase) plasmid, and 10 ng of pSV40-Renilla-Luciferase plasmid (Promega, Madison, WI, USA) with or without co-transfection with 10ng of Gli1 overexpression vector, pSRα-Gli1 using a Lipofectamine LTX Plus transfection reagent, as previously described. Sufu-/- cells cultured in 24 well-plates at 90% confluence were transiently transfected with 0.1μg of pGL3b-8xGli-Luciferase plasmid, and 10 ng of pSV40-Renilla-Luciferase plasmid. 6 hrs after transfection, cells were treated with test agents for 72 h. […] Then the firefly and Renilla luciferase activities were measured using a dual luciferase kit (Promega) and a GloMax-96 Microplate Luminometer (Promega) or a plate reader-SpectraMax iD3 (Molecular Devices, San Jose, CA, USA). […]
Figure 5 Oxy210 acts downstream of Smo. […] After 72 h, RNA was extracted and analyzed by Q-RT-PCR for the expression of Hh target genes Gli1 and Hip, normalized to Oaz1 expression. […] Luciferase activity was measured and normalized to the Renilla luciferase activity. […]

C[C@]12CC[C@H]3[C@@H](CC=C4C[C@@H](O)CC[C@@]43C)[C@@H]1CC[C@@H]2[C@](C)(O)CCc1cccnc1 [Oxy210, (3S,8S,9S,10R,13S,14S,17S)-17-((R)-2-hydroxy-4-(pyridin-3-yl)butan-2-yl)-10,13-dimethyl-2,3,4,7,8,9,10,11,12,13,14,15,16,17-tetradecahydro-1H-cyclopenta[a]phenanthren-3-ol]
inhibitory activity on TβRI in functional kinase assay [1]: did not display significant inhibitory activity | pKa [2]: ~5 | activity of Gli responsive luciferase reporter [3]: significantly inhibited
